Measurements from patent publication US7189751B2, “Oxa(thia)zolidine compounds, process for preparation thereof and anti-inflammatory agents” (Nippon Soda Co., Ltd., priority 2001, dated 2007).

Experiments:
[1] = target: T1, IV-cPLA(2) in activated U937 cells (Homo sapiens, UniProt P47712); experiment: PLA(2) activity: hydrolysis of bis-BODIPY FL C11-PC in TPA/A23187-activated U937 cells; type: cell-based; details: U-937
T1 sequence (P47712 1-749): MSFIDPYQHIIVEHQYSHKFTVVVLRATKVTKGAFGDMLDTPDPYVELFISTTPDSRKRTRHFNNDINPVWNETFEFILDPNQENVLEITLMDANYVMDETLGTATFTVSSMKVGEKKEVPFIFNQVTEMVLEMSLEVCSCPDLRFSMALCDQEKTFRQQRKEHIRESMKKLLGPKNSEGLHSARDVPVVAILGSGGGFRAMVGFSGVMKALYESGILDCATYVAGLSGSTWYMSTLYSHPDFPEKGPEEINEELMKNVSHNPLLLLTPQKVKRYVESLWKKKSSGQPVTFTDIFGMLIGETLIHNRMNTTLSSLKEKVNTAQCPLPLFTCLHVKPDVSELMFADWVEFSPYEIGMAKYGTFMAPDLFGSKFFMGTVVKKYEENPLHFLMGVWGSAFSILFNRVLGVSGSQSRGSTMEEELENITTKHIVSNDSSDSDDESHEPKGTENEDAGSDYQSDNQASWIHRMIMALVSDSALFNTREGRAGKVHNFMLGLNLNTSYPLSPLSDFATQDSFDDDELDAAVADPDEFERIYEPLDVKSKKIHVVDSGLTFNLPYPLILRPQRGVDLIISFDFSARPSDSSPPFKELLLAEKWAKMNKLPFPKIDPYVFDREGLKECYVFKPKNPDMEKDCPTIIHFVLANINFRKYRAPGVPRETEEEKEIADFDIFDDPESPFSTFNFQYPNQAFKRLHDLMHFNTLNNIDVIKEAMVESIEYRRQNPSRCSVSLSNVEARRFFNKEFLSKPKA
Experimental: The PLA(2) activity was measured by quantitatively analyzing the fluorescent product of hydrolysis from 1,2-bis-(4,4-difluoro-5,7-dimethyl-4-bora-3a,4a-diaza-s-indecene-3-undecanoyl)-sn-glycero-3-phosphocholine (hereinafter referred to bis-BODIPY®FL C11-PC, Molecular probes, Inc., B-7701) using activated U937 cells (human monoblastic lymphoma cell line) by inflammatory stimulus (Meshulam, T. et al., The journal of Biological Chemistry 267 (30): 21465–21470 (1992); and Solito, E. et al., British Journal of Pharmacology 124: 1675–1683(1998).). The substrate bis-BODIPY®FL C11-PC is incorporated into cellular membranes, the proximity of the BODIPY®FL fluorophores on adjacent phospholipid acyl chains causes fluorescence self-quenching. Separation of the fluorophores upon hydrolytic cleavage of one of the acyl chains by PLA(1) or the PLA(2) results in increased fluorescence. […]
The test compound was dissolved with DMSO at 30 mM, and the solution diluted with either DMSO or the Assay medium before addition into the reaction mixture. […] The increased fluorescence of the hydrolysis product by the enzyme was determined by measuring the fluorescence emission intensity at 535 nm with excitation at 485 nm from the top side of each plate at 37° C., using a Multi Functional Microplate Reader SPECTRA FLUOR PLUS (TECAN Austria GmbH). […]

[2] = system: acetic acid induced writhes; experiment: Acetic acid writhing; type: in vivo, mouse
Experimental: Pharmacological Test Example 4: Acetic Acid Wirthing
This test was carried out referring to the method of Inoue, K., Motonaga, A. & Nishimura, T (Arzneimittel Forshung/Drug Research, 41 (1): 235–239 (1991)). More specifically, 7.5 mL/kg of 0.9% acetic acid solution was injected intraperitoneally into an ICR-strain male mouse (5 to 7 weeks old), and the induced writhes (characteristic behaviors of convulsive contracting the abdomen, twisting the body and/or extending the legs) were observed. Number of writhes of each mouse was measured during 10 to 20 min. period after acetic acid administration. […] The analgesic activity of the compounds according to the present invention was evaluated on the basis of the degree of inhibiting the number writhes by the administration of the compounds. As the positive control, indomethacin or aspirin was administrated. The analgesic activity of the compounds according to the present invention measured in this test were exemplified in Table 7.

[3] = system: Mouse Ear Edema Induced by TPA; experiment: Mouse ear edema induced by TPA; type: in vivo; details: for Ear Edema Inhibition (%): topical, ICR male mouse, 6 hours after TPA
Experimental: Pharmacological Test Example 2: Mouse Ear Edema Induced by TPA
This test was carried out referring to the method of Carlson, R. P. et al. (Agents and Actions, 17(2): 197–204 (1985).) and the method of Chang, J. (European Journal of Pharmacology, 142: 197–205 (1987).). More specifically, 5 μg/20 μL of TPA (Sigma Chemical Co.), dissolved with ethanol, was topically applied to the anterior and posterior surfaces of the right ear of an ICR-strain male mouse (6–7 weeks old). 6 hours later, the thickness of each ear at the particular part was respectively measured three times using a digimatic micrometer to calculate the mean value. Ear edema was determined by subtracting the mean thickness of the left ear as without treatment from that of the right ear as TPA-applied. Topical application activity was evaluated by applying an acetone solution of the compound of the present invention or 0.1% Tween 80/acetone solution thereof similarly to the anterior and posterior surfaces of the right ear 30 min. before and 15 min. after the TPA-application. […] Oral administration activity was evaluated by administrating 0.2% Tween 80 suspension of the compound of the present invention forcibly and perorally to the mouse an hour prior to the TPA-application. As the positive control, 100 mg/kg of Hydrocortisone (Sigma Chemical Co., H 4001) suspension was applied to the mouse similarly as for the compound of the present invention.

In the case of `Cc1ccc(S(=O)(=O)C(C#N)=C2N[C@@H](C)[C@@H](c3ccc(Cl)cc3)O2)cc1` (relative stereo) [Compound 1-41, Cis-5-(4-chlorophenyl)-4-methyl-2-(1-(4-methylphenylsulfonyl)-1-cyanomethylene)-oxazolidine], the inhibition at 0.1 µM [1] is reported as 100%, the “Number of writhes (Mean ± S.E.)” value ([2]; i.p. 1 mg/kg, 30 min before, vehicle i.p. 25.2 ± 2.2) is reported as 4.0 ± 1.9 and the “Number of writhes (Mean ± S.E.)” value ([2]; p.o. 10 mg/kg, 120 min before, vehicle p.o. 23.5 ± 3.1) is reported as 1.3 ± 0.8. The “Ear Edema Inhibition (%)” value ([3]; 1 mg/40 μL/ear × 2) was 80.5%.
For `CC(=O)Oc1ccccc1C(=O)O` [Aspirin, aspirin], the “Number of writhes (Mean ± S.E.)” value ([2]; i.p. 30 mg/kg, 30 min before, vehicle i.p. 25.2 ± 2.2) was 9.5 ± 2.0 and the “Number of writhes (Mean ± S.E.)” value ([2]; p.o. 100 mg/kg, 60 min before) was 9.5 ± 1.9.
`CC(=O)OCC(=O)[C@@]1(O)[C@H](C)C[C@H]2[C@@H]3CCC4=CC(=O)C=C[C@]4(C)[C@@]3(F)[C@@H](O)C[C@@]21C` [DEX-Ac, Dexamathasone-21-acetate] was tested, and the “body weight after 24 hours” value ([3]; mice of the TPA ear edema test) was “reduced” and the “Ear Edema Inhibition (%)” value ([3]; 1 mg/20 μL/ear × 2) was 79.6%.
For `COc1ccc2c(c1)c(CC(=O)O)c(C)n2C(=O)c1ccc(Cl)cc1` [Indomethacin, indomethacin], the “Number of writhes (Mean ± S.E.)” value ([2]; i.p. 3 mg/kg, 30 min before, vehicle i.p. 25.2 ± 2.2) was 13.8 ± 3.0, the “Number of writhes (Mean ± S.E.)” value ([2]; i.p. 10 mg/kg, 30 min before, vehicle i.p. 25.2 ± 2.2) was 4.8 ± 0.9 and the “Number of writhes (Mean ± S.E.)” value ([2]; p.o. 3 mg/kg, 60 min before) was 6.8 ± 2.0. The intoxicated symptoms ([3]; mice of the TPA ear edema test) was “showed intoxicated symptoms”, the “body weight after 24 hours” value ([3]; mice of the TPA ear edema test) was “reduced” and the “Ear Edema Inhibition (%)” value ([3]; 3 mg/40 μL/ear × 2) was 63.5%.
